From patent publication US20060024414A1, “Methods for preserving food products” (Kraft Foods Holdings, Inc., priority 2004, published 2006)

Tests used:
[1] = tested on: Listeria monocytogenes OSY-328; assay: Inoculated bagged Vienna sausage challenge, warm enrichment/plating for survivors; assay type: cell-based; settings: about 5 min; for Percentage of Bags Testing Positive For Listeria in Batch of 5 (±S.D.): sausage about 10^6 CFU/g; for Percentage of Bags Testing Positive For Listeria in Batch of 3 (±S.D.): TBHQ 300 ppm, sausage about 10^6 per g
Protocol: (§1) In another embodiment, a food substrate processed according to methods of this invention has nondetectable levels of Listeria (even if contamination has occurred). […] The mixture is incubated at 37° C. for 48 hours, followed by the enrichment (mixture) being streaked on Oxford agar or […] agar, and observing the streaked plate for the presence/absence of Listeria. […] Tailing effects also may be reduced or eliminated by methods of the present invention. The presence or absence of other microorganisms may be detected using similar techniques modified for the specific microorganism under consideration. The edible hydroquinone was tert-butylhydroquinone (TBHQ) at a level of either 0 or 100 ppm. The tert-butylhydroquinone was a food grade material obtained from Sigma Chemical Co. (St. Louis, Mo.). The lantibiotic was nisin at a level of either 0 or 100 IU/g. The nisin used was either pure nisin or a commercial nisin ([…]®), both from Aplin & Barrett, Ltd. (Trowbridge, England). […] Nisin samples were prepared by dissolving nisin powder in distilled water, adjusting the pH to 2 with HCl, and sterilizing at 121° C. for 10 minutes. Samples were prepared and used on the same day for each experiment. Three strains of Listeria monocytogenes were used in these challenge studies. Listeria monocytogenes Scott A, OSY-8578, and OSY-328, were obtained from the Food Safety Laboratory of the Department of Food Science and Technology at The Ohio State University (Columbus, Ohio). All experiments were carried out with cultures in stationary phase (grown in tryptose broth (TB; Difco Laboratories, Detroit, Mich.) for 18 hours at 37° C.). […] The hydrostatic pressure used was 600 MPa. For comparison purposes, samples were also treated with no hydrostatic pressure (i.e., under atmospheric pressure). A hydrostatic food processor (Quintus QFP-6, ABB Autoclave Systems, Inc., Columbus, Ohio) was used with a pressure transmitting fluid containing a water/propylene glycol (1:1 vol/vol; Houghto-Safe 620-TY, Houghton International, Inc., Valley Forge, Pa.). Samples were held in a refrigerator before processing and placed on ice following treatment. The temperature during each run was monitored using a thermocouple and a datalogger (Campbell Scientific, Inc., Logan, Utah). […] Canned Vienna sausage (Armour®, The Dial Corporation, Scottsdale, Ariz.) was purchased from local grocery stores. […] One milliliter of each additive, alone or in combinations, was added, and the bags were sealed using vacuum […], Kansas City, Mo.). […] Non-pressurized samples were treated in a similar manner except that no pressure was applied. After high pressure processing, bags were opened aseptically. […] The presence or absence of L. monocytogenes survivors in the samples was determined by streaking the incubated mixture onto Oxford agar and/or […] agar. Each test run consisted of 5 tested bags at a given set of variables; the experiment was repeated 4 times. Treatment conditions required for essentially total elimination of L. monocytogenes were determined using essentially the same materials and procedures as used in Example 1 except that the nisin level was 0, 100, or 200 IU/g; the hydroquinone level was 0, 100, 200, or 300 ppm; and each experiment was repeated 3 times.

[2] = tested on: Listeria monocytogenes OSY-8578; assay: as above; assay type: cell-based; settings: about 5 min; for Percentage of Bags Testing Positive For Listeria in Batch of 5 (±S.D.): sausage about 10^6 CFU/g; for Percentage of Bags Testing Positive For Listeria in Batch of 3 (±S.D.): TBHQ 300 ppm, sausage about 10^6 per g
Protocol: as §1

[3] = tested on: Listeria monocytogenes Scott A; assay: as above; assay type: cell-based; settings: about 5 min; for Percentage of Bags Testing Positive For Listeria in Batch of 5 (±S.D.): sausage about 10^6 CFU/g; for Percentage of Bags Testing Positive For Listeria in Batch of 3 (±S.D.): TBHQ 300 ppm, sausage about 10^6 per g
Protocol: as §1

[4] = tested on: Listeria monocytogenes OSY-328; assay: Pressure inactivation in phosphate buffer, plate count; assay type: cell-based; settings: TBHQ about 100 ppm
Protocol: (§2) Three strains of Listeria monocytogenes identified in Example 1 were grown in tryptose broth for 18 hours at 37° C. Cultures were centrifuged at 10,000 rpm for 15 minutes at 4° C. Cell pellets were resuspended in phosphate buffer (pH 7.0) and the cell population of each strain was adjusted to 10^9 CFU/ml. Tert-butylhydroquinone was added at about 100 ppm (10% vol/vol TBHQ/culture). Preparation of sample bags and the high pressure treatment procedures were same as indicated in Example 1. Pressures tested were 300, 500, and 700 MPa. Control and high pressure-treated treated samples were serially diluted in 0.1% peptone water and spread-plated on tryptose agar. The plates were incubated at 37° C. for 48-72 hours and the colonies were counted.
(§3) The detection level for enumeration was 10 CFU/ml. The initial population of OSY-328 averaged about 8.9 logs; therefore, more than 7.9 log reduction indicates below the detection level.

[5] = tested on: Listeria monocytogenes OSY-8578; assay: as above; assay type: cell-based; settings: TBHQ about 100 ppm
Protocol: as §2, §3

[6] = tested on: Listeria monocytogenes Scott A; assay: as above; assay type: cell-based; settings: TBHQ about 100 ppm
Protocol: as §2, §3

[7] = tested on: Listeria monocytogenes strains; assay: Tailing behaviour during pressure treatment in phosphate buffer; assay type: cell-based; settings: combination of high pressure (300, 500, 700 MPa) and TBHQ about 100 ppm
Protocol: as §2, §3

Listeria monocytogenes [8] = settings: model milk system; Payne et al. 1989; cited from earlier work
Listeria monocytogenes [9] = settings: cells sensitized with the antioxidant at the time of pressure treatment; Mackey et al. 1995; cited from earlier work
[10] = Run 3: 0 MPa, nisin 0 IU/g, TBHQ 100 ppm
[11] = Run 7: 600 MPa, nisin 0 IU/g, TBHQ 100 ppm
[12] = 300 MPa, 0 min (come-up, immediate depressurization)
[13] = 500 MPa, 0 min (come-up, immediate depressurization)
[14] = 700 MPa, 0 min (come-up, immediate depressurization)
[15] = Run 2: 0 MPa, nisin 100 IU/g, TBHQ 0 ppm
[16] = Run 6: 600 MPa, nisin 100 IU/g, TBHQ 0 ppm

CC(C)(C)c1cc(O)ccc1O [TBHQ, tert-butylhydroquinone]
Percentage of Bags Testing Positive For Listeria in Batch of 5 (±S.D.) [1, 10]: 100%
Percentage of Bags Testing Positive For Listeria in Batch of 5 (±S.D.) [1, 11]: 20 (±16) %
Percentage of Bags Testing Positive For Listeria in Batch of 3 (±S.D.) ([1]; Run 10: 0 MPa, nisin 0 IU/g): 100%
Percentage of Bags Testing Positive For Listeria in Batch of 3 (±S.D.) ([1]; Run 15: 600 MPa, nisin 0 IU/g): 0%
Percentage of Bags Testing Positive For Listeria in Batch of 5 (±S.D.) [2, 10]: 100%
Percentage of Bags Testing Positive For Listeria in Batch of 5 (±S.D.) [2, 11]: 25 (±30) %
Percentage of Bags Testing Positive For Listeria in Batch of 3 (±S.D.) ([2]; Run 10: 0 MPa, nisin 0 IU/g): 100%
Percentage of Bags Testing Positive For Listeria in Batch of 3 (±S.D.) ([2]; Run 15: 600 MPa, nisin 0 IU/g): 0%
Percentage of Bags Testing Positive For Listeria in Batch of 5 (±S.D.) [3, 10]: 100%
Percentage of Bags Testing Positive For Listeria in Batch of 5 (±S.D.) [3, 11]: 15 (±30) %
Percentage of Bags Testing Positive For Listeria in Batch of 3 (±S.D.) ([3]; Run 10: 0 MPa, nisin 0 IU/g): 100%
Percentage of Bags Testing Positive For Listeria in Batch of 3 (±S.D.) ([3]; Run 15: 600 MPa, nisin 0 IU/g): 0%
Average Log Reduction [4, 12]: 0 log
Average Log Reduction ([4]; 300 MPa, 1 min): 0 log
Average Log Reduction ([4]; 300 MPa, 5 min): 0 log
Average Log Reduction ([4]; 300 MPa, 10 min): 0.2 log
Average Log Reduction ([4]; 300 MPa, 20 min): 1.0 log
Average Log Reduction ([4]; 300 MPa, 30 min): 1.6 log
Average Log Reduction ([4]; 300 MPa, 40 min): 2.3 log
Average Log Reduction ([4]; 300 MPa, 50 min): 2.4 log
Average Log Reduction ([4]; 300 MPa, 60 min): 3.1 log
Average Log Reduction [4, 13]: 0.2 log
Average Log Reduction ([4]; 500 MPa, 5 min): 7.6 log
Average Log Reduction ([4]; 500 MPa, 10 min): 7.8 log
Average Log Reduction ([4]; 500 MPa, 20 min): ≧7.9 log
Average Log Reduction ([4]; 500 MPa, 30 min): 7.8 log
Average Log Reduction ([4]; 500 MPa, 40 min): ≧7.9 log
Average Log Reduction ([4]; 500 MPa, 50 min): ≧7.9 log
Average Log Reduction [4, 14]: 5.3 log
Average Log Reduction ([4]; 700 MPa, 1 min): ≧8.0 log
Average Log Reduction ([4]; 700 MPa, 5 min): ≧8.0 log
Average Log Reduction ([4]; 700 MPa, 10 min): ≧7.9 log
Average Log Reduction ([4]; 700 MPa, 15 min): ≧7.9 log
Average Log Reduction ([4]; 700 MPa, 20 min): 7.8 log
Average Log Reduction ([4]; 700 MPa, 30 min): ≧8.0 log
Average Log Reduction [5, 12]: 0 log
Average Log Reduction ([5]; 300 MPa, 1 min): 0.2 log
Average Log Reduction ([5]; 300 MPa, 5 min): 0.2 log
Average Log Reduction ([5]; 300 MPa, 10 min): 0.8 log
Average Log Reduction ([5]; 300 MPa, 20 min): 3.8 log
Average Log Reduction ([5]; 300 MPa, 30 min): 5.0 log
Average Log Reduction ([5]; 300 MPa, 40 min): 5.7 log
Average Log Reduction ([5]; 300 MPa, 50 min): 7.2 log
Average Log Reduction [5, 13]: 0.2 log
Average Log Reduction ([5]; 500 MPa, 1 min): 7.2 log
Average Log Reduction ([5]; 500 MPa, 5 min): 7.6 log
Average Log Reduction ([5]; 500 MPa, 10 min): ≧8.0 log
Average Log Reduction ([5]; 500 MPa, 20 min): 7.9 log
Average Log Reduction ([5]; 500 MPa, 30 min): 7.8 log
Average Log Reduction ([5]; 500 MPa, 40 min): ≧8.0 log
Average Log Reduction [5, 14]: 7.6 log
Average Log Reduction ([5]; 700 MPa, 0.5 min): 7.7 log
Average Log Reduction ([5]; 700 MPa, 1 min): 7.8 log
Average Log Reduction ([5]; 700 MPa, 5 min): ≧8.0 log
Average Log Reduction ([5]; 700 MPa, 10 min): ≧8.0 log
Average Log Reduction ([5]; 700 MPa, 15 min): ≧8.0 log
Average Log Reduction ([5]; 700 MPa, 20 min): ≧8.0 log
Average Log Reduction [6, 12]: 0 log
Average Log Reduction ([6]; 300 MPa, 1 min): 0 log
Average Log Reduction ([6]; 300 MPa, 5 min): 2.2 log
Average Log Reduction ([6]; 300 MPa, 10 min): 6.5 log
Average Log Reduction ([6]; 300 MPa, 20 min): 7.3 log
Average Log Reduction ([6]; 300 MPa, 30 min): 7.3 log
Average Log Reduction ([6]; 300 MPa, 40 min): ≧8.0 log
Average Log Reduction [6, 13]: 3.8 log
Average Log Reduction ([6]; 500 MPa, 1 min): 7.9 log
Average Log Reduction ([6]; 500 MPa, 5 min): 8.0 log
Average Log Reduction ([6]; 500 MPa, 10 min): ≧8.0 log
Average Log Reduction ([6]; 500 MPa, 15 min): ≧8.0 log
Average Log Reduction ([6]; 500 MPa, 20 min): ≧8.0 log
Average Log Reduction ([6]; 500 MPa, 30 min): ≧8.0 log
Average Log Reduction [6, 14]: 7.7 log
Average Log Reduction ([6]; 700 MPa, 0.5 min): 7.5 log
Average Log Reduction ([6]; 700 MPa, 1 min): ≧8.0 log
Average Log Reduction ([6]; 700 MPa, 2 min): ≧8.0 log
Average Log Reduction ([6]; 700 MPa, 5 min): ≧8.0 log
Average Log Reduction ([6]; 700 MPa, 10 min): ≧8.0 log
Average Log Reduction ([6]; 700 MPa, 15 min): ≧8.0 log
tailing phenomenon [7]: eliminated the tailing phenomenon

CCCOC(=O)c1ccc(O)cc1 [Propyl paraben]
antimicrobial activity against Listeria monocytogenes (Listeria monocytogenes [8]): only consistently active inhibitor

Cc1cc(C(C)(C)C)c(O)c(C(C)(C)C)c1 [BHT, Butylated hydroxy toluene]
resistance of Listeria monocytogenes to high hydrostatic pressure treatment (sensitizing effect) (Listeria monocytogenes [9]): not effective

COc1ccc(O)c(C(C)(C)C)c1 [BHA, butylated hydroxyanisole]
resistance of Listeria monocytogenes to high hydrostatic pressure treatment (sensitizing effect) (Listeria monocytogenes [9]): reduced

nisin (ITSISLCTPGCKTGALMGCNMKTATCHCSIHVSK; not fully specified; Lantibiotic nisin-A; UniProt P13068 24-57, looked up) [lantibiotic; antimicrobial polypeptide produced by Lactococcus lactis; pure nisin or commercial Nisaplin from Aplin & Barrett]
Percentage of Bags Testing Positive For Listeria in Batch of 5 (±S.D.) [1, 15]: 100%
Percentage of Bags Testing Positive For Listeria in Batch of 5 (±S.D.) [1, 16]: 10 (±20) %
Percentage of Bags Testing Positive For Listeria in Batch of 5 (±S.D.) [2, 15]: 100%
Percentage of Bags Testing Positive For Listeria in Batch of 5 (±S.D.) [2, 16]: 30 (±38) %
Percentage of Bags Testing Positive For Listeria in Batch of 5 (±S.D.) [3, 15]: 100%
Percentage of Bags Testing Positive For Listeria in Batch of 5 (±S.D.) [3, 16]: 15 (±19) %
